Publication PMC11125159 (Pharmaceutics, 2024)
Marks after values point to notes of the source that are not given here.

Assay: Pharmacokinetic assay in rats, plasma LIRA by UPLC-MS/MS
Format: in vivo
Conditions: male Wistar rats, subcutaneous, single dose 200 µg/kg of LIRA, mean ± SD, n = 6
Text: Ultra-performance liquid chromatography (Acquity UPLC© Waters, Milford, MA, USA), coupled with a triple quadrupole mass spectrometer (XEVO-TQD, Waters®) equipped with a Z sprayTM electrospray ionisation source (Waters®, Milford, MA, USA), was employed to detect, and quantify LIRA levels in rat plasma after treatment. An ACQUITY UPLC BEH C18 reversed-phase chromatographic column (50 mm × 2.1 mm; 1.7 µm) was used, with a mobile phase composed of acetonitrile and ultrapure water, both acidified with 0.1% formic acid, eluted in gradient mode, with varying proportions (20/80, 45/55, 60/40, 80/20, 90/10, 80/20, 30/70, 20/80) at specific time intervals (0, 1.5, 2.0, 2.5, 3.0, 3.5, 4.5, 6.0 min), with a flow rate of 0.3 mL/min, injection volume of 2 µL, with a total analysis time of 7.5 min. The samples were maintained at a temperature of 10 °C in the sampler, while the column oven was maintained at 40 °C. Detection by mass spectrometry was carried out in positive electrospray ionisation (ESI+) mode, in multiple reaction monitoring (MRM) mode, with a source temperature of 150 °C, capillary voltage equal to 3.5 kV, desolvation temperature of 600 °C, desolvation flow of 1000 L/h and gas flow in the cone of 50 L/h. […] The transitions set at m/z 938.7 → 1064.1 for LIRA and m/z 1184.7 → 454.4 for insulin detemir. […]

- Cl: 0.183 ± 0.015 ^b L/h
Structure (SMILES): CCCCCCCCCCCCCCCC(=O)N[C@@H](CCC(=O)NCCCC[C@H](NC(=O)[C@H](C)NC(=O)[C@H](C)NC(=O)[C@H](CCC(N)=O)NC(=O)CNC(=O)[C@H](CCC(=O)O)NC(=O)[C@H](CC(C)C)NC(=O)[C@H](Cc1ccc(O)cc1)NC(=O)[C@H](CO)NC(=O)[C@H](CO)NC(=O)[C@@H](NC(=O)[C@H](CC(=O)O)NC(=O)[C@H](CO)NC(=O)[C@@H](NC(=O)[C@H](Cc1ccccc1)NC(=O)[C@@H](NC(=O)CNC(=O)[C@H](CCC(=O)O)NC(=O)[C@H](C)NC(=O)[C@@H](N)Cc1cnc[nH]1)[C@@H](C)O)[C@@H](C)O)C(C)C)C(=O)N[C@@H](CCC(=O)O)C(=O)N[C@@H](Cc1ccccc1)C(=O)N[C@H](C(=O)N[C@@H](C)C(=O)N[C@@H](Cc1c[nH]c2ccccc12)C(=O)N[C@@H](CC(C)C)C(=O)N[C@H](C(=O)N[C@@H](CCCNC(=N)N)C(=O)NCC(=O)N[C@@H](CCCNC(=N)N)C(=O)NCC(=O)O)C(C)C)[C@@H](C)CC)C(=O)O [Free LIRA, Liraglutide]
